Laboratory results published in US11746136B2, “Composition and methods for disruption of bacterial biofilms without accompanying inflammation” (Research Institute at Nationwide Children's Hospital, priority 2017, dated 2023).

B1: HMGB1: HMGB1 added to UPEC UTI89 biofilm; probably the recombinant human HMGB1 (rHMGB1) (protein, UniProt P09429 1-215, looked up)
High mobility group protein B1: MGKGDPKKPRGKMSSYAFFVQTCREEHKKKHPDASVNFSEFSKKCSERWKTMSAKEKGKFEDMAKADKARYEREMKTYIPPKGETKKKFKDPNAPKRPPSAFFLFCSEYRPKIKGEHPGLSIGDVAKKLGEMWNNTAADDKQPYEKKAAKLKEKYEKDIAAYRAKGKPDAAKKGVVKAEKSKKKKEEEEDEEDEEDEEEEEDEEDEDEEEDDDDE

What was measured:
[1] = test system: branched DNA structures; assay: Affinity to branched DNA structures; assay type: binding; settings: effect of the C45S mutation
[2] = test system: Staphylococcus aureus; assay: Anti-biofilm effect on in vitro preformed 24-hour biofilm (CLSM, COMSTAT); assay type: cell-based; design: key: ↓: 20-30% decrease; ↓↓: 31-50% decrease; ↓↓↓: >51% decrease; ↔: No change; settings: 5 μg/ml added at 24h to preformed biofilm, 16 h incubation; decrease vs control
Experimental: (§1) To determine the antibiofilm function of the variant HMGB1 (mHMGB1 (C45S)), Applicants expressed and purified human recombinant HMGB1 (rHMGB1) and recombinant variant HMGB1 (mHMGB1 (C45S)) in E. coli. In vitro preformed 24-hour biofilms formed by multiple human pathogens as indicated in Table 1 were incubated with 5 μg/ml rHMGB1 or mHMGB1 (C45S) for 16 hours. Enterococcus faecium biofilms were incubated with 20 μg/ml rHMGB1 or mHMGB1 (C45S) for 16 hours. Biofilms were washed and stained with LIVE/DEAD® stain and analyzed using a confocal laser scanning microscope and COMSTAT analysis. Applicants observed that mHMGB1 (C45S) was effective at disrupting each of the in vitro preformed biofilms as indicated by significant reduction in average thickness and biomass compared to the control (Table 1).
(§2) HMGB1 isoforms (5 μg/ml) were added at 24h to in vitro preformed bacterial biofilms. After 16 h of incubation (40h total), biofilms were washed and stained with LIVE/DEAD® followed by visualization using CLSM. Biofilms were analyzed by Comstat to calculate average thickness^a (AT) and biomass^a (BM).

[3] = test system: NTHI strain 86-028NP biofilms; assay: Chinchilla model of experimental otitis media, clearance of preformed NTHI biofilms; assay type: in vivo; settings: 4-day old NTHI biofilm, two doses (day 4 and 5; 5 μg each) into middle ear, scored day 6, vs diluent
Experimental: Diluent, 5 μg rHMGB1, or 5 mHMGB1 (C45S) were delivered directly to the middle ears of chinchillas at 4 and 5 days post infection with NTHI. Animals were sacrificed 24 h later and their middle ears were imaged (FIG. 1A) and blindly scored (FIG. 1B) based on the criteria described in the bottom of FIG. 1A. Bars represent SEM. ***P<0.001.
Diluent or 5 μg rHMGB1 or mHMGB1 (C45 S) were delivered directly to middle ears of chinchillas at 4 and 5 days post infection with NTHI. Animals were sacrificed 24 h later, and their middle ears were imaged (FIG. 6A) and blindly scored (FIG. 6B) based on the criteria described in the bottom of (FIG. 6A). Bars represent SEM. ***P<0.001.
To determine the antibiofilm function of mHMGB1 (C45S) in vivo, Applicants employed two distinct animal models. In the first model Applicants tested the ability of rHMGB1 and mHMGB1 (C45S) to clear preformed NTHI biofilms in Applicants' well-established chinchilla model of experimental OM (Novotny et al. 2011; 2013b; Novotny et al. 2016). Applicants first established NTHI strain 86-028NP biofilms in the chinchilla middle ear for 4 days. […] On day 6 the animals were sacrificed and the middle ears were blindly scored for the presence of any remaining biofilm. […] After 4h, mice were sacrificed and total neutrophils were quantified in peritoneal lavage.

[4] = test system: Enterococcus faecium; assay: Anti-biofilm effect on in vitro preformed 24-hour biofilm (CLSM, COMSTAT); assay type: cell-based; settings: 20 μg/ml added at 24h to preformed biofilm, 16 h incubation; decrease vs control
Experimental: as §1, §2

[5] = test system: Nontypeable Haemophilus influenzae; assay: as above; assay type: cell-based; settings: 5 μg/ml added at 24h to preformed biofilm, 16 h incubation; decrease vs control
Experimental: as §1, §2

[6] = test system: Enterobacter spp.; assay: as above; assay type: cell-based; settings: 5 μg/ml added at 24h to preformed biofilm, 16 h incubation; decrease vs control
Experimental: as §1, §2

[7] = test system: Klebsiella pneumoniae; assay: as above; assay type: cell-based; settings: 5 μg/ml added at 24h to preformed biofilm, 16 h incubation; decrease vs control
Experimental: as §1, §2

[8] = test system: Pseudomonas aeruginosa; assay: as above; assay type: cell-based; settings: 5 μg/ml added at 24h to preformed biofilm, 16 h incubation; decrease vs control
Experimental: as §1, §2

[9] = test system: Acinetobacter baumanii; assay: as above; assay type: cell-based; settings: 5 μg/ml added at 24h to preformed biofilm, 16 h incubation; decrease vs control
Experimental: as §1, §2

[10] = test system: Uropathogenic E. coli; assay: as above; assay type: cell-based; settings: 5 μg/ml added at 24h to preformed biofilm, 16 h incubation; decrease vs control
Experimental: as §1, §2

[11] = test system: Burkholderia cenocepacia; assay: as above; assay type: cell-based; settings: 5 μg/ml added at 24h to preformed biofilm, 16 h incubation; decrease vs control
Experimental: as §1, §2

[12] = test system: Aggregatibacter actinomycetemcomitans; assay: as above; assay type: cell-based; settings: 5 μg/ml added at 24h to preformed biofilm, 16 h incubation; decrease vs control
Experimental: as §1, §2

[13] = Consequences of bacterial dispersal from biofilm in vivo (second site infections, sepsis)
Source text: Also, this dispersal effect could result in sepsis.

[14] = test system: Burkholderia cenocepacia; assay type: in vivo, C57BL/6 mice; settings: for bacterial burden (CFUs) in BAL: 10^7 CFU intratracheally, 5 μg added simultaneously, after 18 hours, vs control
Experimental: C57BL/6 mice were infected with 10^7 CFU i.t., and simultaneously received rHMGB1 or mHMGB1 (C45S). After 18 h, (FIG. 2A) B. cenocepacia CFUs were quantified in BAL, (FIG. 2B) total host cells infiltrating into the lung were enumerated in BAL, and (FIG. 2C) BAL cells were stained with anti CD45, CD11b and Ly-6G to measure neutrophil migration. Bars represent standard deviation. *P<0.05; **P<0.005. (FIG. 2D) Lungs were collected 72 hpi. Tissue was fixed and embedded in paraffin, sectioned and stained with H&E. All panels show a magnification of 10×.
C57BL/6 mice were infected with 10^7 CFU i.t., and simultaneously received […] rHMGB1 or mHMGB1 (C45 S). (FIG. 7A) Aggregates of B. cenocepacia were visible by fluorescence microscopy in sections probed with an α-B. cenocepacia antibody. After 18 h, (FIG. 7B) CFUs were quantified in BAL, and (FIG. 7C) BAL cells were stained with α-CD45, CD11b, and Ly-6G to measure neutrophil migration. Bars represent SD. *P<0.05.
To determine the antibiofilm function of mHMGB1 (C45S) in vivo, Applicants employed two distinct animal models. In the first model Applicants tested the ability of rHMGB1 and mHMGB1 (C45S) to clear preformed NTHI biofilms in Applicants' well-established chinchilla model of experimental OM (Novotny et al. 2011; 2013b; Novotny et al. 2016). Applicants first established NTHI strain 86-028NP biofilms in the chinchilla middle ear for 4 days. Applicants then treated the 4-day old NTHI biofilm with two doses (day 4 and 5; 5 μg each) of rHMGB1, mHMGB1 (C45S) or diluent. On day 6 the animals were sacrificed and the middle ears were blindly scored for the presence of any remaining biofilm. […] In the second model, Applicants tested the ability of rHMGB1 and mHMGB1 (C45S) to inhibit biofilm development of Burkholderia cenocepacia in the murine airways. C57BL/6 mice were infected with 10^7 CFU of B. cenocepacia intratracheally and 5 μg of rHMGB1 or mHMGB1 (C45S) was added simultaneously. After 18 hours, the animals were sacrificed and bronchoalveolar lavage (BAL) and lungs were collected. […] Lastly, Applicants validated the inflammatory activity of rHMGB1 and mHMGB1 (C45S) in an in vivo chemotaxis model to determine the ability to recruit neutrophils (Orlova et al. 2007; Penzo et al. 2010). C57BL/6 mice were injected with 5 μg of either mHMGB1 (C45S) or rHMGB1 or 1 ml of 4% thioglycollate. After 4h, mice were sacrificed and total neutrophils were quantified in peritoneal lavage.

[15] = test system: Uropathogenic E. coli UTI89; assay: HMGB1 added at seeding and at 24h to UPEC biofilm; assay type: cell-based; settings: 0.1, 1 and 5 μg/ml added at seeding and at 24h
Experimental: Applicants added HMGB1 at 0.1, 1 and 5 μg/ml at seeding and at 24h to a biofilm formed by Uropathogenic E. coli UTI89. […] Based on this information, Applicants hereby disclose a method for inhibiting, competing or titrating the binding of a deoxyribonucleic acid B II (DNABII) polypeptide to a microbial DNA in a biofilm, comprising, or alternatively consisting essentially of, or yet further consisting of, contacting the microbial DNA in the biofilm with an effective amount of an isolated or recombinant polypeptide comprising a modified high mobility group-box 1 domain (mHMGB1) comprising a C45S substitution thereby inhibiting, competing or titrating the binding of the DNABII polypeptide to the microbial DNA. The contacting can be accomplished in vitro or in vivo. Non-limiting examples of organisms that promote our cause the biofilm include one or more of Burkholderia cenocepacia, Enterobacter spp., Staphylococcus aureus, Klebsiella pneumoniae, Acinetobacter baumanii, Pseudomonas aeruginosa, Enterococcus faecium, Uropathogenic Escherichia coli (UPEC), Non-typeable Haemophilus influenzae (NTHI), and/or Aggregatibacter actinomycetemcomitans.

Row | Molecule | average thickness (AT) [2] | biomass (BM) [2] | clearing of biofilm from the middle ear (blindly scored) [3] | average thickness (AT) [4] | biomass (BM) [4] | average thickness (AT) [5] | biomass (BM) [5] | average thickness (AT) [6] | biomass (BM) [6] | average thickness (AT) [7] | biomass (BM) [7] | average thickness (AT) [8] | biomass (BM) [8] | average thickness (AT) [9] | biomass (BM) [9] | average thickness (AT) [10] | biomass (BM) [10] | average thickness (AT) [11] | biomass (BM) [11] | average thickness (AT) [12] | further results
1 | mHMGB1 (C45S): variant human HMGB1 with the cysteine at position 45 substituted with serine, expressed in E. coli (MGKGDPKKPRGKMSSYAFFVQTCREEHKKKHPDASVNFSEFSKKSSERWK) | ↓↓↓ (>51% decrease) | ↓↓↓ (>51% decrease) | very effective at clearing the biofilms from the middle ear | ↓↓ (31-50% decrease) | ↓↓ (31-50% decrease) | ↓ (20-30% decrease) | ↓ (20-30% decrease) | ↓↓↓ (>51% decrease) | ↓↓↓ (>51% decrease) | ↓↓↓ (>51% decrease) | ↓↓↓ (>51% decrease) | ↓↓↓ (>51% decrease) | ↓↓↓ (>51% decrease) | ↓↓↓ (>51% decrease) | ↓↓↓ (>51% decrease) | ↓↓↓ (>51% decrease) | ↓↓↓ (>51% decrease) | ↓↓↓ (>51% decrease) | ↓↓↓ (>51% decrease) | ↓ (20-30% decrease) | affinity to branched DNA structures [1]: increases the affinity of the molecule to branched DNA structures; biomass (BM) [12]: ↓ (20-30% decrease); second site infections or sepsis after dispersal of bacteria from biofilm [13]: None of these consequences has been observed; B. cenocepacia CFUs in BAL compared to rHMGB1 ([14]; 10^7 CFU i.t., simultaneous treatment, after 18 h, compared to rHMGB1): significant decreases; bacterial burden (CFUs) in BAL [14]: effective at reducing the bacterial burden in BAL; inflammatory cell infiltration compared to rHMGB1 ([14]; mouse, in vivo): significant decreases; lung damage (H&E) ([14]; mouse, in vivo): more resembled uninfected mouse lungs
2 | rHMGB1: recombinant HMGB1 derived from a human, expressed and purified in E. coli, used as comparator to mHMGB1 (C45S) [reference compound] | ↔ | ↔ | very effective at clearing the biofilms from the middle ear | ↓↓↓ (>51% decrease) | ↓↓↓ (>51% decrease) | ↓ (20-30% decrease) | ↓ (20-30% decrease) | ↓↓↓ (>51% decrease) | ↓↓↓ (>51% decrease) | ↓↓↓ (>51% decrease) | ↓↓↓ (>51% decrease) | ↓↓↓ (>51% decrease) | ↓↓↓ (>51% decrease) | ↓↓↓ (>51% decrease) | ↓↓ (31-50% decrease) | ↓↓ (31-50% decrease) | ↓↓ (31-50% decrease) | ↓↓↓ (>51% decrease) | ↓↓↓ (>51% decrease) | ↓ (20-30% decrease) | biomass (BM) [12]: ↓ (20-30% decrease); bacterial burden (CFUs) in BAL [14]: effective at reducing the bacterial burden in BAL; lung damage (H&E) ([14]; mouse, in vivo): severe inflammation and increased neutrophil response
3 | B1 |  |  |  |  |  |  |  |  |  |  |  |  |  |  |  |  |  |  |  |  | disruption of UPEC biofilms [15]: dose-dependent disruption of UPEC biofilms
